Earlier results, collected in patent US8435963B2, “Weight loss compositions and uses thereof” (priority 2008, dated 2013).
Structures can show the parent of a compound that is named as a salt. Where two headings read alike, the source gives them in different places.

half-life (human, in vivo) [h]	half-life (humans) [h]	Compound
8 to 11	–	COC(=O)[C@@H]1[C@H]2C[C@H]3c4[nH]c5cc(O)ccc5c4CCN3C[C@@H]2CC[C@@H]1O [11-Hydroxy yohimbine]
–	2.5	COC(=O)[C@@H]1[C@H]2C[C@H]3c4[nH]c5ccccc5c4CCN3C[C@@H]2CC[C@@H]1O [yohimbine HCl, 17α-hydroxy-yohimban-16α-carboxylic acid methyl ester]
